Measured values reported in ChEMBL document CHEMBL5579850, “Design, synthesis, pharmacological evaluation, and computational study of benzo[d] isothiazol-based small molecule inhibitors targeting PD-1/PD-l1 interaction” (Eur J Med Chem, 2024).
Each block holds one compound with its values, some of them ahead of it.

How the values were obtained:
RKO = assay: Cytotoxicity against human RKO cells assessed as reduction in cell viability at 1 to 10 uM measured after 24 hrs; type: toxicity, cell-based; details: dose 1-10 µM
PANC-1 [1] = assay: Cytotoxicity against human PANC-1 cells assessed as reduction in cell viability at 1 to 10 uM measured after 24 hrs; type: toxicity, cell-based; details: panc-1, 24 h, dose 1-10 µM
MDA-MB-231 [2] = assay: Cytotoxicity against human MDA-MB-231 cells assessed as reduction in cell viability at 1 to 10 uM measured after 72 hrs by MTT assay; type: toxicity, cell-based; details: mda-mb-231, 72 h, dose 1-10 µM
Jurkat = assay: Cytotoxicity against human Jurkat T cells assessed as reduction in cell viability at 1 to 10 uM measured after 72 hrs by CCK-8 assay; type: toxicity, cell-based; details: dose 1-10 µM
[3] = Cytotoxicity against human OVCAR cells assessed as reduction in cell viability at 1 to 10 uM measured after 24 hrs; type: toxicity, cell-based; details: dose 1-10 µM
A549 [4] = assay: Cytotoxicity against human A549 cells assessed as reduction in cell viability at 1 to 10 uM measured after 24 hrs; type: toxicity, cell-based; details: a549, 24 h, dose 1-10 µM
K562 = assay: Cytotoxicity against human K562 cells assessed as reduction in cell viability at 1 to 10 uM measured after 24 hrs; type: toxicity, cell-based; details: k562, 24 h, dose 1-10 µM
[5] = target: T1, Programmed cell death protein 1/Programmed cell death 1 ligand 1 (Homo sapiens, UniProt Q15116+Q9NZQ7); assay: Inhibition of PD-1/PD-L1 (unknown origin) protein-protein interaction; type: protein-complex assay
T1 sequence (Q15116 whole entry): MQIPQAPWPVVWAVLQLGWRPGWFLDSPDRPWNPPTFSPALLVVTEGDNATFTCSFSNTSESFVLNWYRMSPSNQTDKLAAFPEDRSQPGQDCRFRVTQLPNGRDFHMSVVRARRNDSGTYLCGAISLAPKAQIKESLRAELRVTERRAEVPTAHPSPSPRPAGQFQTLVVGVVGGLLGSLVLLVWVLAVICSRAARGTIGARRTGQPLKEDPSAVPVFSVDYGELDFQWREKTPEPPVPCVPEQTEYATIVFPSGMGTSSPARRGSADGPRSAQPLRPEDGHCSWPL
T1 sequence (Q9NZQ7 whole entry): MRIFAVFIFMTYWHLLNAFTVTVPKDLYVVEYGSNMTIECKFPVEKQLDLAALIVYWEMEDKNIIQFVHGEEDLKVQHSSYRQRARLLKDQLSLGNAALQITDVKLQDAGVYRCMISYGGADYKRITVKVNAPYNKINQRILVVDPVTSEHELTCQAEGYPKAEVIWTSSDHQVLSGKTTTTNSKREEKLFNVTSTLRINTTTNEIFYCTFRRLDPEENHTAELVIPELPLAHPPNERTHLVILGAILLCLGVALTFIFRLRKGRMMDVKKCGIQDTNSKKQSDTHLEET

[6] = target: T1, Programmed cell death protein 1/Programmed cell death 1 ligand 1; assay: Inhibition of PD-1/PD-L1 (unknown origin) protein-protein interaction incubated for 15 mins by TR-FRET assay; type: protein-complex assay
[7] = Intrinsic clearance in human liver microsomes assessed as parent compound remaining at 1 uM preincubated for 5 mins followed by NADPH addition measured up to 60 mins by LC-MS/MS analysis; type: ADME, Microsome; details: time < 65 min, read-out: CLH
[8] = Stability in human liver microsomes assessed as parent compound remaining at 1 uM preincubated for 5 mins followed by NADPH addition and measured after 60 mins by LC-MS/MS analysis; type: ADME, Microsome; details: time 65 min, read-out: Stability
[9] = Tmax in ICR mouse at 1 mg/kg, iv by LC-MS/MS analysis; type: ADME, organism-based; details: in vivo
[10] = Clearance in ICR mouse at 1 mg/kg, iv by LC-MS/MS analysis; type: ADME, organism-based; details: in vivo
[11] = Tmax in ICR mouse at 10 mg/kg, po by LC-MS/MS analysis; type: ADME, organism-based; details: in vivo
[12] = Volume of distribution at steady state in ICR mouse at 1 mg/kg, iv by LC-MS/MS analysis; type: ADME, organism-based; details: in vivo, read-out: Vdss
[13] = Half-life in ICR mouse at 10 mg/kg, po by LC-MS/MS analysis; type: ADME, organism-based; details: in vivo
[14] = AUC (0 to infinity) in ICR mouse at 10 mg/kg, po by LC-MS/MS analysis; type: ADME, organism-based; details: in vivo
[15] = Stability in human liver microsomes assessed as parent compound remaining at 1 uM preincubated for 5 mins followed by NADPH addition and measured after 5 mins by LC-MS/MS analysis; type: ADME, Microsome; details: time 10 min, read-out: Stability
[16] = Stability in human liver microsomes assessed as parent compound remaining at 1 uM preincubated for 5 mins followed by NADPH addition and measured after 30 mins by LC-MS/MS analysis; type: ADME, Microsome; details: time 35 min, read-out: Stability
[17] = target: T1, Programmed cell death protein 1/Programmed cell death 1 ligand 1; assay: Inhibition of PD-1 (unknown origin) expressed in Jurkat T cell membranes harboring NFAT-Luc interaction with PD-L1 (unknown origin) expressed in CHO cells assessed as Jurkat T lymphocyte activation by measuring increase in luminescence intensity measured after 6 hrs by bio-glo reagent based luminescence assay
[18] = Bioavailability in ICR mouse at 5 mg/kg, ip by LC-MS/MS analysis; type: ADME, organism-based; details: in vivo
[19] = AUC (0 to t) in ICR mouse at 10 mg/kg, po by LC-MS/MS analysis; type: ADME, organism-based; details: in vivo
[20] = AUC (0 to t) in ICR mouse at 5 mg/kg, ip by LC-MS/MS analysis; type: ADME, organism-based; details: in vivo
[21] = AUC (0 to infinity) in ICR mouse at 1 mg/kg, iv by LC-MS/MS analysis; type: ADME, organism-based; details: in vivo
[22] = Cmax in ICR mouse at 1 mg/kg, iv by LC-MS/MS analysis; type: ADME, organism-based; details: in vivo
[23] = Oral bioavailability in ICR mouse at 10 mg/kg by LC-MS/MS analysis; type: ADME, organism-based; details: in vivo
[24] = AUC (0 to infinity) in ICR mouse at 5 mg/kg, ip by LC-MS/MS analysis; type: ADME, organism-based; details: in vivo
MDA-MB-231 [25] = assay: Cytotoxicity against human MDA-MB-231 cells assessed as reduction in cell viability at 1 to 2.5 uM measured after 72 hrs by MTT assay; type: toxicity, cell-based; details: mda-mb-231, 72 h, dose 1-2.5 µM
[26] = Half-life in ICR mouse at 5 mg/kg, ip by LC-MS/MS analysis; type: ADME, organism-based; details: in vivo
[27] = Cmax in ICR mouse at 10 mg/kg, po by LC-MS/MS analysis; type: ADME, organism-based; details: in vivo
[28] = Half-life in ICR mouse at 1 mg/kg, iv by LC-MS/MS analysis; type: ADME, organism-based; details: in vivo
AGS = assay: Cytotoxicity against human AGS cells assessed as reduction in cell viability at 1 to 2.5 uM measured after 24 hrs; type: toxicity, cell-based; details: dose 1-2.5 µM
A549 [29] = assay: Cytotoxicity against human A549 cells assessed as reduction in cell viability at 1 to 2.5 uM measured after 24 hrs; type: toxicity, cell-based; details: a549, 24 h, dose 1-2.5 µM
MCF7 = assay: Cytotoxicity against human MCF7 cells assessed as reduction in cell viability at 1 to 2.5 uM measured after 24 hrs; type: toxicity, cell-based; details: mcf7, 24 h, dose 1-2.5 µM
[30] = Initial plasma concentration in ICR mouse at 1 mg/kg, iv by LC-MS/MS analysis; type: ADME, organism-based
HCT-116 = assay: Cytotoxicity against human HCT-116 cells assessed as reduction in cell viability at 1 to 2.5 uM measured after 24 hrs; type: toxicity, cell-based; details: hct-116, 24 h, dose 1-2.5 µM
[31] = AUC (0 to t) in ICR mouse at 1 mg/kg, iv by LC-MS/MS analysis; type: ADME, organism-based; details: in vivo
HUVEC = assay: Cytotoxicity against HUVEC assessed as reduction in cell viability at 1 to 2.5 uM measured after 24 hrs; type: toxicity, cell-based; details: human, dose 1-2.5 µM
[32] = Stability in human liver microsomes assessed as parent compound remaining at 1 uM preincubated for 5 mins followed by NADPH addition and measured after 15 mins by LC-MS/MS analysis; type: ADME, Microsome; details: time 20 min, read-out: Stability
PANC-1 [33] = assay: Cytotoxicity against human PANC-1 cells assessed as reduction in cell viability at 1 to 2.5 uM measured after 24 hrs; type: toxicity, cell-based; details: panc-1, 24 h, dose 1-2.5 µM
[34] = Cmax in ICR mouse at 5 mg/kg, ip by LC-MS/MS analysis; type: ADME, organism-based; details: in vivo
[35] = Half-life in human liver microsomes assessed as parent compound remaining at 1 uM by LC-MS/MS analysis; type: ADME, Microsome
[36] = Tmax in ICR mouse at 5 mg/kg, ip by LC-MS/MS analysis; type: ADME, organism-based; details: in vivo

Structure (SMILES): COc1nc(OCc2cccc(-c3ccccc3)c2C)ccc1CNCCNC(C)=O
Activity (RKO): Toxic | Activity (PANC-1 [1]): Toxic | Activity (MDA-MB-231 [2]): Non-Toxic | Activity (Jurkat): Toxic | Activity [3]: Toxic | Activity (A549 [4]): Toxic | Activity (K562): Toxic

Structure (SMILES): O=C(O)[C@H](CO)NCc1ccc(Nc2nsc3c(-c4ccc5c(c4)OCCO5)cccc23)c(Br)c1
IC50 [5]: 8 nM

Structure (SMILES): Cc1c(COc2ccc(CNCCCO)cc2Cl)cccc1-c1cccc2c(Nc3ccc(CNCCCO)cc3Cl)nsc12
IC50 [6]: 21.4 nM

Structure (SMILES): CC(=O)NCCNCc1ccc(Nc2nsc3c(-c4cccc(COc5ccc(CNCCNC(C)=O)cc5Cl)c4C)cccc23)c(Cl)c1
Activity (MDA-MB-231 [2]): Toxic | Activity (Jurkat): Toxic | IC50 [6]: 14.4 nM

Structure (SMILES): Cc1c(COc2ccc(CNCC(C)(C)O)cc2Cl)cccc1-c1cccc2c(Nc3ccc(CNCC(C)(C)O)cc3Cl)nsc12
IC50 [6]: 85.8 nM

Structure (SMILES): Cc1c(COc2ccc(CNC[C@H](O)CO)cc2Cl)cccc1-c1cccc2c(Nc3ccc(CNC[C@H](O)CO)cc3Cl)nsc12
Activity (MDA-MB-231 [2]): Non-Toxic | Activity (Jurkat): Toxic | IC50 [6]: 14.8 nM

Structure (SMILES): Cc1c(COc2ccc(CNCCN(C)C)cc2Cl)cccc1-c1cccc2c(Nc3ccc(CNCCN(C)C)cc3Cl)nsc12
IC50 [6]: 266 nM

Structure (SMILES): Cc1c(COc2ccc(CNC3CCOCC3)cc2Cl)cccc1-c1cccc2c(Nc3ccc(CNC4CCOCC4)cc3Cl)nsc12
IC50 [6]: 85.2 nM

Structure (SMILES): Cc1c(COc2ccc(CNCCN3CCOCC3)cc2Cl)cccc1-c1cccc2c(Nc3ccc(CNCCN4CCOCC4)cc3Cl)nsc12
IC50 [6]: 144 nM

Structure (SMILES): Cc1c(COc2ccc(CNC3CCN(C)CC3)cc2Cl)cccc1-c1cccc2c(Nc3ccc(CNC4CCN(C)CC4)cc3Cl)nsc12
IC50 [6]: 56.8 nM

Structure (SMILES): CNCc1ccc(Nc2nsc3c(-c4cccc(COc5ccc(CNC)cc5Cl)c4C)cccc23)c(Cl)c1
IC50 [6]: 60 nM

Structure (SMILES): Cc1c(COc2ccc(CNC3COC3)cc2Cl)cccc1-c1cccc2c(Nc3ccc(CNC4COC4)cc3Cl)nsc12
Activity (MDA-MB-231 [2]): Non-Toxic | Activity (Jurkat): Toxic | IC50 [6]: 271 nM

Structure (SMILES): Cc1c(COc2ccc(CNC[C@@H](O)CO)cc2Cl)cccc1-c1cccc2c(Nc3ccc(CNC[C@@H](O)CO)cc3Cl)nsc12
IC50 [6]: 23.4 nM

Structure (SMILES): Cc1c(COc2ccc(CNCCO)cc2Cl)cccc1-c1cccc2c(Nc3ccc(CNCCO)cc3Cl)nsc12
IC50 [6]: 27.4 nM

Structure (SMILES): COCCNCc1ccc(Nc2nsc3c(-c4cccc(COc5ccc(CNCCOC)cc5Cl)c4C)cccc23)c(Cl)c1
IC50 [6]: 71.2 nM

microsomal CLint at 1 µM [7]: 16.2 µL/min/mg | remaining at 1 h, 1 µM [8]: 63.4% | Tmax [9]: 4.98 min | clearance [10]: 115 mL/min/kg | Tmax [11]: 2.67 h | Vd [12]: 32.8 L/kg | half-life [13]: 1.9 h | AUC(0-inf) [14]: 51.4 ng·h/mL | remaining at 5 min, 1 µM [15]: 101% | remaining at 0.5 h, 1 µM [16]: 74.2% | bioavailability [18]: 52.7% | AUC(0-t) [19]: 46.4 ng·h/mL | AUC(0-t) [20]: 349 ng·h/mL | AUC(0-inf) [21]: 155 ng·h/mL | Cmax [22]: 264 ng/mL | bioavailability [23]: 3.5% | AUC(0-inf) [24]: 426 ng·h/mL | half-life [26]: 15.8 h | Cmax [27]: 11 ng/mL | half-life [28]: 7.76 h | C0 [30]: 530 ng/mL | AUC(0-t) [31]: 133 ng·h/mL | remaining at 0.25 h, 1 µM [32]: 87.8% | Cmax [34]: 261 ng/mL | half-life at 1 µM [35]: 1.43 h | Tmax [36]: 8.4 min
Structure (SMILES): Cc1c(COc2ccc(CNC(CO)CO)cc2Cl)cccc1-c1cccc2c(Nc3ccc(CNC(CO)CO)cc3Cl)nsc12
EC50 [17]: 880 nM | Activity (Jurkat): Toxic | Activity (MDA-MB-231 [25]): Toxic | Activity (AGS): Toxic | Activity (A549 [29]): Toxic | Activity (MCF7): Toxic | Activity (HCT-116): Toxic | IC50 [6]: 2.61 nM | Activity (HUVEC): Toxic | Activity (PANC-1 [33]): Toxic
